The record followed here is ChEMBL document CHEMBL1125020 (J Med Chem, 1990).

One assay deals with Adenosine A2 receptor (Rattus norvegicus, UniProt P29276+P30543).
Assay [1] is described as follows: Inhibition of Adenylate Cyclase in Rat adipocytes. The assay is classed as cell-based.
A further assay addresses T1, Adenosine receptor A1 (Rattus norvegicus, UniProt P25099).
T1 sequence (P25099 whole entry): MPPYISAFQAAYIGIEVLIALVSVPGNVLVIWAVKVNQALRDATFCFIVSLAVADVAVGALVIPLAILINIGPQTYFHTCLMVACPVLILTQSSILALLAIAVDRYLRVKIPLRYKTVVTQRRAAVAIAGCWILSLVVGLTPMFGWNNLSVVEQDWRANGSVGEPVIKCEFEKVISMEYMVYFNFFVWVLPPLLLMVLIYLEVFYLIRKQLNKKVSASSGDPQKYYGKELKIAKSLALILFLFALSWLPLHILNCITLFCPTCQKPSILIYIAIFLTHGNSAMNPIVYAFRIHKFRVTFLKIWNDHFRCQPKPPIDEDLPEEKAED

`CCCn1c(=O)c2nc([C@@H](C)Cc3ccccc3)[nH]c2n(CCC)c1=O` showed a Ki on Adenosine A2 receptor of 848 nM.

Turning to `Cn1c(=O)c2nc[nH]c2n(C)c1=O` [THEOPHYLLINE], 940 nM corresponded to half-maximal inhibition in assay [1] (IC50). Take `CCCn1c(=O)c2nc(C(C)Cc3ccccc3)[nH]c2n(CCC)c1=O` (stereo not given): on Adenosine A2 receptor, the Ki came out at 644 nM.

Compound `Cn1c(=O)c2nc(C3CCCCC3)[nH]c2n(C)c1=O` returned an IC50 in assay [1] of 2.5 nM. For the same compound, the Ki at Adenosine A2 receptor came out at 4.7 nM. `Cn1c(=O)c2nc(C3CCCC3)[nH]c2n(C)c1=O` [8-CYCLOPENTYLTHEOPHYLLINE]: the IC50 in assay [1] amounted to 0.47 nM. At Adenosine receptor A1, this compound registered a Ki of 0.46 nM. In turn, `OC[C@H]1O[C@@H](n2cnc3c(NC4CCCC4)ncnc32)[C@H](O)[C@@H]1O` [N6-CYCLOPENTYLADENOSINE] showed an IC50 in assay [1] of 19.2 nM. The Ki at Adenosine A2 receptor turned out to be 1.1 nM. Turning to `OC[C@H]1O[C@@H](n2cnc3c(NCc4ccccc4)ncnc32)[C@H](O)[C@@H]1O` [N6-BENZYLADENOSINE], it took 2200 nM to reach half-maximal inhibition in assay [1] (IC50). Also, the Ki on Adenosine A2 receptor amounted to 350 nM. Turning to `OC[C@H]1O[C@@H](n2cnc3c(NC4CCCCC4)ncnc32)[C@H](O)[C@@H]1O`, the midpoint of inhibition in assay [1], the IC50, lay at 27 nM. Same read-out and setting: in the case of `Cn1c(=O)c2nc(Cc3ccccc3)[nH]c2n(C)c1=O` it was 890 nM; in that of `Cn1c(=O)c2nc(C3CC3)[nH]c2n(C)c1=O`, 42 nM. In assay [1], `Cn1c(=O)c2nc(-c3ccccc3)[nH]c2n(C)c1=O` [8-PHENYL THEOPHYLLINE] showed an IC50 of 37 nM. Moreover, on Adenosine A2 receptor, the Ki came out at 20.9 nM. The like results for `OC[C@H]1O[C@@H](n2cnc3c(Nc4ccccc4)ncnc32)[C@H](O)[C@@H]1O` [N6-PHENYLADENOSINE] were, in that order, 190 nM and 110 nM. In turn, `OC[C@H]1O[C@@H](n2cnc3c(NC4CC4)ncnc32)[C@H](O)[C@@H]1O` yielded a Ki on Adenosine receptor A1 of 2.1 nM. That is a single-digit nanomolar value.

Regarding `CCCn1c(=O)c2nc([C@H](C)Cc3ccccc3)[nH]c2n(CCC)c1=O`, the Ki on Adenosine A2 receptor was 157 nM.
